Values quoted from earlier work in patent US20110110858A1, “Gold nanoparticle imaging agents and uses thereof” (priority 2009, published 2011).

Conditions: 25° C.

NCCCC[C@H](N[C@@H](CCc1ccccc1)C(=O)O)C(=O)N1CCC[C@H]1C(=O)O [lisinopril]
pKa of the central CO2H: 2.5
pKa of the lysyl amino group: 10.1
pKa of the prolyl CO2H: 4.0
pKa of the secondary amine group: 6.7
